Experimental data taken from US20170000377A1, “SYSTEM AND METHOD FOR IMAGING FREE RADICALS” (THE GENERAL HOSPITAL CORPORATION, priority 2014, published 2017).

Experiment: OMRI of rat after MCAO and reperfusion with injected TEMPOL
Design: species or system Wistar rat
Conditions: following ischemia/reperfusion in vivo, imaged with OMRI
Experimental: A 3D OMRI process can be performed using a variation of a balanced steady state free precession (b-SSFP) pulse sequence, for example, such as described in Sarracanie M et al. MRM 2013 DOI: 10.1002/mrm.24705. To achieve sensitivity of b-SSFP-based OMRI to free radical concentration, an NMR/ESR coil setup can be used. For one in vivo experiment, a single loop ESR coil 400 was arranged inside a solenoid NMR coil 402, as illustrate din FIG. 4. Under anesthesia, MCAO occlusion was performed in a 3 month old Wistar rat by insertion of filament via external carotid artery. Following 75 min MCAO and 60 min reperfusion, 3.6 μl/gbw of 300 μM TEMPOL was injected into the carotid artery after which the animal was sacrificed and OMRI imaging begun.
The OMRI enhancement image may be computed from a ratio of OMRI to MRI magnitude. […] The phase of the OMRI image in FIG. 6 provides sensitive contrast even in cases where the radical concentration is very low and the Overhauser enhancement may be small.

In the case of `CC1(C)CC(O)CC(C)(C)N1[O]` [TEMPOL, 4-hydroxy-2,2,6,6-tetramethylpiperidin-1-oxyl], the “crossing the BBB” value is reported as “crossing the BBB”.
